In the NIST ThermoML archive (doi:10.1021/je050173+):

Tests used:
[1] = for mass density / viscosity / thermal conductivity: 101.33 kPa; for mass density / viscosity / thermal conductivity / vapor or sublimation pressure: Liquid; for surface tension liquid-gas: Maximal bubble pressure; for thermal conductivity: Hot wire method
[2] = molar heat capacity at constant pressure; conditions: 101.33 kPa, Liquid

C[Si]1(C)O[Si](C)(C)O[Si](C)(C)O[Si](C)(C)O1 [octamethylcyclotetrasiloxane]
Conditions	mass density [kg/m3]	molar heat capacity at constant pressure [J/K/mol]	surface tension liquid-gas [mN/m]	thermal conductivity [W/m/K]	vapor or sublimation pressure [kPa]	viscosity [mPa·s]
[1], 292 K	957.55	–	–	–	–	–
[1], 293.15 K	–	–	17.93	–	–	2.45
[1], 298.15 K	–	–	–	0.1131	–	–
[1], 301.6 K	946.16	–	–	–	–	–
[1], 303.15 K	944.21	–	17.28	–	–	2.06
[1], 311.2 K	934.8	–	–	–	–	–
[1], 311.8 K	–	–	–	–	0.355	–
[1], 313.15 K	932.43	–	16.6	–	–	1.7
[1], 316 K	929.12	–	–	–	–	–
[1], 317.63 K	–	–	–	–	0.535	–
[1], 318.25 K	–	–	–	–	0.548	–
[1], 323.15 K	–	–	15.95	–	–	1.44
[1], 325.62 K	917.74	–	–	–	–	–
[1], 328.59 K	–	–	–	–	0.988	–
[1], 328.78 K	–	–	–	–	0.996	–
[1], 330.47 K	912.06	–	–	–	–	–
[1], 332.94 K	–	–	–	–	1.295	–
[1], 333.15 K	909.32	–	15.16	–	–	1.23
[1], 336.67 K	–	–	–	–	1.642	–
[1], 339.58 K	–	–	–	–	1.926	–
[1], 340.05 K	900.68	–	–	–	–	–
[1], 343.15 K	–	–	14.5	0.1038	–	1.06
[1], 343.99 K	–	–	–	–	2.426	–
[1], 344.8 K	894.99	–	–	–	–	–
[1], 349.65 K	889.31	–	–	–	–	–
[1], 349.86 K	–	–	–	–	3.277	–
[1], 353.15 K	884.79	–	13.77	–	–	0.92
[1], 360.26 K	–	–	–	–	5.47	–
[1], 363.15 K	–	–	13.05	–	–	0.81
[1], 364.04 K	872.24	–	–	–	–	–
[1], 373.15 K	861.35	–	12.38	–	–	0.71
[1], 376.51 K	–	–	–	–	10.96	–
[1], 379.31 K	–	–	–	–	12.23	–
[1], 381.23 K	–	–	–	–	13.17	–
[1], 383.15 K	–	–	–	–	–	0.63
[1], 383.17 K	–	–	–	–	14.24	–
[1], 383.2 K	849.47	–	–	–	–	–
[1], 383.58 K	–	–	–	–	14.44	–
[1], 388.92 K	–	–	–	–	17.67	–
[1], 389.73 K	–	–	–	–	18.2	–
[1], 390.88 K	–	–	–	–	18.9	–
[1], 393.15 K	837.64	–	10.98	–	–	0.56
[1], 396.28 K	–	–	–	–	22.95	–
[1], 397.6 K	832.37	–	–	–	–	–
[1], 403.15 K	–	–	–	–	–	0.51
[1], 407.22 K	821	–	–	–	–	–
[1], 407.56 K	–	–	–	–	33.46	–
[1], 413.15 K	813.94	–	9.58	–	–	–
[1], 413.82 K	–	–	–	–	40.8	–
[1], 421.58 K	803.91	–	–	–	–	–
[1], 423.15 K	–	–	–	–	–	0.41
[1], 423.24 K	–	–	–	–	54.11	–
[1], 433.15 K	790.24	–	8.18	–	–	–
[1], 446.26 K	–	–	–	–	100.82	–
[2], 293.15 K	–	511.5	–	–	–	–
[2], 298 K	–	513.6	–	–	–	–
[2], 303.15 K	–	515.8	–	–	–	–
[2], 306.25 K	–	517.2	–	–	–	–
[2], 313.12 K	–	520.1	–	–	–	–
[2], 319 K	–	522.7	–	–	–	–
[2], 323.25 K	–	524.5	–	–	–	–
[2], 327.55 K	–	526.4	–	–	–	–
[2], 334.75 K	–	529.1	–	–	–	–
[2], 337.88 K	–	530.8	–	–	–	–
[2], 342.23 K	–	532.7	–	–	–	–
[2], 348.05 K	–	535.2	–	–	–	–
[2], 352.2 K	–	538.8	–	–	–	–
[2], 358.83 K	–	539.9	–	–	–	–
[2], 364.28 K	–	542.2	–	–	–	–
[2], 370.25 K	–	543	–	–	–	–
[2], 377.55 K	–	548	–	–	–	–
[2], 382.48 K	–	550.1	–	–	–	–
[2], 388.65 K	–	552.3	–	–	–	–
[2], 393.15 K	–	554.7	–	–	–	–
[2], 399.83 K	–	557.7	–	–	–	–
[2], 407.15 K	–	560.8	–	–	–	–
[2], 415.73 K	–	564.5	–	–	–	–
[2], 425.95 K	–	568.4	–	–	–	–
